Reference: patent US20240043860A1, “NOVEL HYDROXYPHENYLPYRUVATE DIOXYGENASE POLYPEPTIDES AND METHODS OF USE THEREOF” (Syngenta Crop Protection AG, priority 2020, published 2024)

Key:
[1] = system: HPPD variant ALOME V200 (SEQ ID NO: 7); assay: coupled HGO assay; type: biochemical, Alopecurus myosuroides
Protocol: (§1) DNA sequences (SEQ ID NOs: 65-118, 128, 130, 131, and 133), synthesized for expression in E. coli, by GeneWiz (USA) to encode HPPD variants (SEQ ID NOs: 5-58, 122, 124, 125 and 127) derived from either Avena sativa (SEQ ID NOs: 122, 124), Alopecurus myosuroides (SEQ ID NO: 126) or Apera spica-venti (SEQ ID NOs: 123, 125) were transformed into E coli BL21 (DE3) (New England Biolabs) and grown in 0.5 ml Terrific broth +50 ug/ml Kanamycin media in a 96-deepwell block overnight (37° C., 900rpm). 25 ul of the overnight cultures were inoculated into fresh 96-deepwell block containing 1 ml Formedium Autoinduction Media (AIM). The AIM cultures were grown for 3h at 37° C. (900rpm) and then transferred to 20° C. overnight (900rpm) to allow protein expression. The overnight cultures were centrifuged and 500 ul of Cellytic B (Sigma Aldrich) was added to resuspend the cell pellets. The coupled HGO assay (Siehl et al, 2014) is used to generate IC50 values for the HPPD variants of interest.
(§2) E. coli BL21 (DE3) cells were transformed with a pET24a vector containing a C-terminally his-tagged Arabidopsis HGO gene, grown and induced overnight as described for the HPPD variants above. The cell pellet was resuspended in phosphate buffered saline at pH 7.4 containing 10% Glycerol, 1mm Tris[2-carboxyethyl] phosphine-HCl (TCEP) plus 30 mM Imidazole and lysed using lysozyme/benzonase. The extract was clarified by low speed centrifugation and purified in the same buffer down a 1 ml His Gravitrap column. The bound HGO was eluted in 0.25M imidazole and the fractions pooled and beaded into liquid nitrogen. All procedures apart from the centrifugation and beading steps were carried out under a nitrogen atmosphere.
(§3) The coupled HGO assay is carried out by adding 10 ul of HPPD extract to a 96-well plate and then adding 40 ul of reaction buffer (50 mM Bis Tris Propane, pH7.0, 25 mM sodium-L-ascorbate, 400μM mercaptoethanol, 50 μM Fe(II)SO4). The plates are left to incubate for 5 minutes on ice. […] 200 ul of HPP/HGO (197 μM hydroxyphenylpyruvic acid, 16 μl/ml Homogentisic Acid Oxidase in reaction buffer as described above) buffer is then added to the well and the reaction is regularly monitored (e.g. every 30 seconds-5 minutes) for absorbance at 330 nm for a given time period (e.g., for between 15-60 minutes). The data can then be used to calculate the IC50 value for each HPPD variant of interest.

[2] = system: HPPD variant ALOME V209 (SEQ ID NO: 19); assay: coupled HGO assay; type: biochemical, Alopecurus myosuroides
Protocol: as §1, §2, §3

[3] = system: HPPD variant AVESA V201 (SEQ ID NO: 8); type: biochemical, Avena sativa; conditions: SEQ ID NO: 8 compared to control SEQ ID NO: 122
Protocol: 25 ul of the overnight cultures were inoculated into fresh 96-deepwell block containing 1 ml Formedium Autoinduction Media (AIM). The AIM cultures were grown for 3h at 37° C. (900rpm) and then transferred to 20° C. overnight (900rpm) to allow protein expression. The overnight cultures were centrifuged and 500 ul of Cellytic B (Sigma Aldrich) was added to resuspend the cell pellets. The coupled HGO assay (Siehl et al, 2014) is used to generate IC50 values for the HPPD variants of interest.
as §2, §3

## Cn1nnnc1NC(=O)c1ccc(C(F)(F)F)nc1-n1cncn1 [Herbicide D, N-(1-methyltetrazol-5-yl)-2-(1,2,4-triazol-1-yl)-6-(trifluoromethyl)pyridine-3-carboxamide]
[1]
  IC50: 77.8 µM
[2]
  IC50: 96.9 µM
[3]
  increase of the IC50 value: ~80 fold
